Consider 18 compounds from ChEMBL document CHEMBL1137721, “Modeling the activity of furin inhibitors using artificial neural network” (Eur J Med Chem, 2009).

In the experiment the target is Furin (Homo sapiens, UniProt P09958). In words: Inhibition of human recombinant furin-dependent anthrax protective antigen processing.

Molecules are shown by their SMILES.

Sequence of Furin (P09958 whole entry): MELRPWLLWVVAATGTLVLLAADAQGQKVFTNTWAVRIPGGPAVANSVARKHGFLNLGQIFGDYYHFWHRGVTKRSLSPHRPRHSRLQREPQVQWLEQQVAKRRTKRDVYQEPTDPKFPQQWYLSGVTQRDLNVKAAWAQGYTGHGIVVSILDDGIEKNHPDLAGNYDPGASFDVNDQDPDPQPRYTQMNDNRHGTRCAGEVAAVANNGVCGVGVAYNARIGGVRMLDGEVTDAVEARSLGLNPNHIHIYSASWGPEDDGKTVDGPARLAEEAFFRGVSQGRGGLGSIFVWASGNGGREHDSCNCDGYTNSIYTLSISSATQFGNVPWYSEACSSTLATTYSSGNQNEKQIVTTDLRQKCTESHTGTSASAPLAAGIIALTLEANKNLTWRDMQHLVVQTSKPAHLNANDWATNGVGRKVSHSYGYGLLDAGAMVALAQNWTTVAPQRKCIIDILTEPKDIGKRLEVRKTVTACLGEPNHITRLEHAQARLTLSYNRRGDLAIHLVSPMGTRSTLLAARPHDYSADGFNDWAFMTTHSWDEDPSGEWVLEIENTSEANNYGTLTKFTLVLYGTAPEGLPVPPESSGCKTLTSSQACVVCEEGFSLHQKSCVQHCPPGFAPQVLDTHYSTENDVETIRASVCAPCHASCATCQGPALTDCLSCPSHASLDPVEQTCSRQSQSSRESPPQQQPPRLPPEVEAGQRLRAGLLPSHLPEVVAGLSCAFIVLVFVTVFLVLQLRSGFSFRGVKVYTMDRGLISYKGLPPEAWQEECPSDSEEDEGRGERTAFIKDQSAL

For `N=C(N)Nc1ccc(O[C@H]2C[C@@H](Oc3ccc(NC(=N)N)cc3NC(=N)N)[C@H](NC(=N)N)C[C@@H]2NC(=N)N)c(NC(=N)N)c1`, the Ki (usually a measure of affinity in units of concentration, obtained from inhibition or displacement) amounted to 169 nM.
Then `NC(N)=N[C@H]1C[C@@H](N=C(N)N)[C@H](Oc2ccccn2)C[C@@H]1Oc1ccccn1`, with 100000 nM.
With `NC(N)=Nc1ccc(O[C@H]2C[C@@H](Oc3ccc(N=C(N)N)c4ccccc34)[C@H](N=C(N)N)C[C@@H]2N=C(N)N)c(N=C(N)N)c1`, the Ki worked out at 404 nM.
The value for `N=C(N)Nc1ccc(NC(=O)O[C@H]2C[C@@H](OC(=O)Nc3ccc(NC(=N)N)cc3)[C@H](NC(=N)N)C[C@@H]2NC(=N)N)cc1` was 812 nM; that for `NC(N)=Nc1ccc(N[C@H]2C[C@@H](N=C(N)N)[C@H](Oc3ccc(N=C(N)N)c4ccccc34)C[C@@H]2Oc2ccc(N=C(N)N)c3ccccc23)c2ccccc12` was 423 nM; that for `NC(N)=Nc1ccc(O[C@H]2C[C@@H](Oc3ccc(N=C(N)N)cc3)[C@H](N=C(N)N)C[C@@H]2N=C(N)N)cc1` was 12 nM.
Then `NC(N)=Nc1ccccc1O[C@H]1C[C@@H](Oc2ccccc2N=C(N)N)[C@H](N=C(N)N)C[C@@H]1N=C(N)N`, with 100000 nM.
Then `NC(N)=Nc1cccnc1O[C@H]1C[C@@H](Oc2ncccc2N=C(N)N)[C@H](N=C(N)N)C[C@@H]1N=C(N)N`, with 100000 nM.
On to `N=C(N)Nc1ccc(O[C@H]2C[C@@H](Oc3ccc(NC(=N)N)cn3)[C@H](NC(=N)N)C[C@@H]2NC(=N)N)nc1`, for which the Ki is 42 nM.
`N=C(N)N[C@H]1C[C@@H](NC(=N)N)[C@H](Oc2ccc3nc(N)[nH]c3c2)C[C@@H]1Oc1ccc2nc(N)[nH]c2c1`: the Ki came to 100000 nM.
Then `N=C(N)Nc1ccc(O[C@H]2C[C@@H](Oc3ccc(NC(=N)N)c4ccccc34)[C@H](NC(=N)N)C[C@@H]2NC(=N)N)cc1`, with 6 nM.
Then `NC(N)=Nc1ccc(O[C@@H]2C[C@H](Oc3ccc(N=C(N)N)cc3N=C(N)N)[C@@H](N=C(N)N)C[C@H]2N=C(N)N)cc1`, with 89 nM.
Then `NC(N)=Nc1ccc(O[C@H]2C[C@@H](Oc3ccc(N=C(N)N)c4ccccc34)[C@H](N=C(N)N)C[C@@H]2N=C(N)N)c2ccccc12`, with 69 nM; and `NC(N)=Nc1ccc(N[C@H]2C[C@@H](N=C(N)N)[C@H](Oc3ccc(N=C(N)N)cc3)C[C@@H]2Oc2ccc(N=C(N)N)cc2)cc1`, with 46 nM; and `NC(N)=Nc1cccc(NC(=O)O[C@H]2C[C@@H](OC(=O)Nc3cccc(N=C(N)N)c3)[C@H](N=C(N)N)C[C@@H]2N=C(N)N)c1`, with 1770 nM.
With `N=C(N)Nc1ccccc1NC(=O)O[C@H]1C[C@@H](OC(=O)Nc2ccccc2NC(=N)N)[C@H](NC(=N)N)C[C@@H]1NC(=N)N`, the inhibition constant (Ki) was determined as 100000 nM.
With `NC(N)=Nc1cnccc1O[C@H]1C[C@@H](Oc2ccncc2N=C(N)N)[C@H](N=C(N)N)C[C@@H]1N=C(N)N`, the Ki was 100000 nM.
In the case of `N=C(N)Nc1ccc(O[C@H]2C[C@@H](Oc3ccc(NC(=N)N)c4ccccc34)[C@H](NC(=N)N)C[C@@H]2NC(=N)N)c(N)c1`, the Ki amounted to 22 nM.
